This passage reports IC50 results from patent US8404859B2, “Thiazole and thiophene compounds” (Hoffmann-La Roche Inc., priority 2011, dated 2013).

Some results are limits rather than exact numbers.

One test addresses sLFA-1/ICAM-1 (Homo sapiens, UniProt P05107+P20701, DEL701-769). Description: sLFA-1/ICAM-1 ELISA. The conditions noted are these: sLFA-1 coated plates, 5dICAM-Fc binding, read-out: LFA/ICAM (IC50). The procedure:
(§1) sLFA-1/ICAM-1 ELISA and Mac-1/ICAM-1 ELISA
(§2) Plates were coated with either 50 μl/well of 2.0 ug/ml solution of sLFA-1 or Mac-1 receptor in divalent cation buffer (1 mM MnCI2, 0.14M NaCl, 20 mM HEPES pH 7.2) at 4° C. overnight. Two hundred fifty μl of blocking buffer (1% BSA in divalent cation buffer) was added to each well 1 hour at 37° C. Plates were washed 3 times with wash buffer (TBS/0.05% Tween-20/1 mM MnCl2). The compound to be tested was solubilized in DMSO. A series of 1:3 dilutions were performed to achieve a concentration range of 0.45 nM-3 uM. Fifty μl of binding buffer (0.5% BSA in divalent cation buffer)/1% DMSO and 50 μl of the solutions to be tested were added to the appropriate wells and incubated for 1 hour. Fifty μl of 5dICAM-Fc (27 ng/ml) was added to the appropriate wells and 50 μl binding buffer was added to non-specific binding wells and incubated for 2 hours and washed. One hundred μl of 1:4000 HRP-goat anti-huIgG was added to each well and incubated for 1 hour and washed. One hundred μl of 1:1 TMB solution was added to each well and developed for 20 min at room temperature. Color development was stopped by adding 100 μl H3PO4 to each well. Absorbance was measured at 450 nm.

The next test has as its target Mac-1/ICAM-1 (Homo sapiens, UniProt P05107+P11215). Description: Mac-1/ICAM-1 ELISA. The conditions noted are these: Mac-1 receptor coated plates, 5dICAM-Fc binding. The procedure:
as §1, §2
(An ELISA detects its analyte on a solid surface through an enzyme-linked reagent.)

Sequence of sLFA-1/ICAM-1 (P20701 26-1090 limits assumed, stated change not applied): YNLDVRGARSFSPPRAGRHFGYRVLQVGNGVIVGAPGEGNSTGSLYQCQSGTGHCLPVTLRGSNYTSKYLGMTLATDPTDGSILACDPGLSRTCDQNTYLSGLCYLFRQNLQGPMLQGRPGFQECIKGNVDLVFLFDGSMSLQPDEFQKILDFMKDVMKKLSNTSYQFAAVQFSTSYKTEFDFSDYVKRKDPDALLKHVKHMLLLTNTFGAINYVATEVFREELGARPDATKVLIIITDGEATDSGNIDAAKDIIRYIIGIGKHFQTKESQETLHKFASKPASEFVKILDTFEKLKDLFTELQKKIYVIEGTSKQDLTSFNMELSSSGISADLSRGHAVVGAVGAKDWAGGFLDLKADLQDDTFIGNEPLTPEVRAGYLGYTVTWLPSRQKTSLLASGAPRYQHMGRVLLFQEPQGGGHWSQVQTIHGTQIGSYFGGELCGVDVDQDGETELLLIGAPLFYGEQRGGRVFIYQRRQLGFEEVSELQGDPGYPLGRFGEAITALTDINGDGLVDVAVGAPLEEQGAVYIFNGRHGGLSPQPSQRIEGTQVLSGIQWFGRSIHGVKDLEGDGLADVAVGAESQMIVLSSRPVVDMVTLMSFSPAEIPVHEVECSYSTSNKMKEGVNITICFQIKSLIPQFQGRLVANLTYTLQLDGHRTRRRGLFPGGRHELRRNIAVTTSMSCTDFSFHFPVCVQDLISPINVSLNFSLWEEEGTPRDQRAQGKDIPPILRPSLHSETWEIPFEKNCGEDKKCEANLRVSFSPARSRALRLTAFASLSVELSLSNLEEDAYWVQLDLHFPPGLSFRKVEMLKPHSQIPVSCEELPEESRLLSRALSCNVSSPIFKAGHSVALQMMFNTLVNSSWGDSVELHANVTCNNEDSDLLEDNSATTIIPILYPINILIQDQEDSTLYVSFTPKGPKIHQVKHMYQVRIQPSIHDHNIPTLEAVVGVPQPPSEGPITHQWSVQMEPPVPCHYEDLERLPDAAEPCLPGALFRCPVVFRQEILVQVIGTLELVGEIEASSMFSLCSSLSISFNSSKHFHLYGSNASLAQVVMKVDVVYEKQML
Sequence of sLFA-1/ICAM-1 (P05107 23-700 limits assumed, stated change not applied): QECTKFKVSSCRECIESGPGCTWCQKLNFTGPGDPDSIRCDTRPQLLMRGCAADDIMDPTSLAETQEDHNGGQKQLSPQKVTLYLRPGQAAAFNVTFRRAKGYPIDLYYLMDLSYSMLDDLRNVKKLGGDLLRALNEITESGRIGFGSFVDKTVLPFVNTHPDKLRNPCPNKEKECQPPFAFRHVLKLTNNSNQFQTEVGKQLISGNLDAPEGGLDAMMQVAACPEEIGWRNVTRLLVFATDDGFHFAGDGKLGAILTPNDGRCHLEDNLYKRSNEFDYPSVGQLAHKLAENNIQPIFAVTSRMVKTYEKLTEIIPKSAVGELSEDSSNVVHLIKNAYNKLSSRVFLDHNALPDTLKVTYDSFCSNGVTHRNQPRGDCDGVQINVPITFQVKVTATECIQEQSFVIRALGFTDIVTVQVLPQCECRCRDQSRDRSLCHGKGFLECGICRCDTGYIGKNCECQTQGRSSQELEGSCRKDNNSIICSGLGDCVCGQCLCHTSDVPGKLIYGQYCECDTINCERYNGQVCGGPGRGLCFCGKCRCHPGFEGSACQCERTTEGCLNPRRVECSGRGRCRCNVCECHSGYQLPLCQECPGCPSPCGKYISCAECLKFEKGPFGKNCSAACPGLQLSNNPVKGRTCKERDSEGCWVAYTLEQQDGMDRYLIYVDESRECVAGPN
Sequence of Mac-1/ICAM-1 (P05107 23-769, other chains not shown): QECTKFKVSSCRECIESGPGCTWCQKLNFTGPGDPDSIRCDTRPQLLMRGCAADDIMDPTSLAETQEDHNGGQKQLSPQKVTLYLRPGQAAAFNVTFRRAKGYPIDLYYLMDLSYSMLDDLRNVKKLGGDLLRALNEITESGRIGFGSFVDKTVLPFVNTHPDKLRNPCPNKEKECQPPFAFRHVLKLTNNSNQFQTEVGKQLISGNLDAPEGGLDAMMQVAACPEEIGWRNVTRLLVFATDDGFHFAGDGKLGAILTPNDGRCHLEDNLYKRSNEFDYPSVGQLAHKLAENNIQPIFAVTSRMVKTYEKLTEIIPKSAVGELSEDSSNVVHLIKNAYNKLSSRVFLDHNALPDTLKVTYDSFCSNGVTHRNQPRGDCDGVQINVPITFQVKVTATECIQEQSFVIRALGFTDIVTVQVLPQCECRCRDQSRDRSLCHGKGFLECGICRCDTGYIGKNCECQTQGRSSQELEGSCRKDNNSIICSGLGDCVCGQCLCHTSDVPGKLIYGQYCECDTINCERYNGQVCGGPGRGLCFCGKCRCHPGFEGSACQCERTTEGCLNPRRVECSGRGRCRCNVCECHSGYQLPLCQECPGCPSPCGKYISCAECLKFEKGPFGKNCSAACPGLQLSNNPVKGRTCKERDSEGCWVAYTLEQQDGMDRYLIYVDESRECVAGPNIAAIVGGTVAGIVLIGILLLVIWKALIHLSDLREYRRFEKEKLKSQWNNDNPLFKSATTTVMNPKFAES

`Cc1nc(NC(=O)Cc2cccc3[nH]ncc23)sc1C(=O)N[C@@H](CNC(=O)c1cccs1)C(=O)O` [Example 14, (S)-2-{[2-(2-1H-Indazol-4-yl-acetylamino)-4-methyl-thiazole-5-carbonyl]-amino}-3-[(thiophene-2-carbonyl)-amino]-propionic acid]: the IC50 turned out to be 8 nM on sLFA-1/ICAM-1 and 89 nM at Mac-1/ICAM-1.
The corresponding values for `Cc1nc(NC(=O)Cc2cccc3[nH]ncc23)sc1C(=O)N[C@@H](CNC(=O)c1cc(O)cc(O)c1)C(=O)O` [Example 15, (S)-3-(3,5-Dihydroxy-benzoylamino)-2-{[2-(2-1H-indazol-4-yl-acetylamino)-4-methyl-thiazole-5-carbonyl}-amino]-propionic acid] are 3 nM and 12 nM.
The corresponding values for `Cc1nc(NCCCc2cccc3[nH]ncc23)sc1C(=O)N[C@@H](CNC(=O)c1cccs1)C(=O)O` [Example 17, (S)-2-([2-[3-(1H-Indazol-4-yl)-propylamino]-4-methyl-thiazole-5-carbonyl]-amino)-3-[(thiophene-2-carbonyl)-amino]-propionic acid] are 223 nM and 294 nM.
For `Cc1cc(C(=O)NCc2cccc(O)c2)sc1C(=O)N[C@@H](CNC(=O)c1cccs1)C(=O)O` [Example 32, (S)-2-{[5-(3-hydroxy-benzylcarbamoyl)-3-methyl-thiophen-2-carbonyl]-amino}-3-[(thiophene-2-carbonyl)-amino]-propionic acid], the IC50 at sLFA-1/ICAM-1 amounted to 19 nM; at Mac-1/ICAM-1, 94 nM.
On to `CC(C)(C)c1cc(C(=O)NCc2cccc(O)c2)sc1C(=O)N[C@@H](CNC(=O)c1cccs1)C(=O)O` [Example 33], for which the values for the IC50 at sLFA-1/ICAM-1 and on Mac-1/ICAM-1 were 149 nM and 300 nM, respectively.
For `Cc1cc(C(=O)NCc2cccc3[nH]ccc23)sc1C(=O)N[C@@H](CNC(=O)c1cccs1)C(=O)O` [Example 34, (S)-2-({5-[(1H-indol-4-ylmethyl)carbamoyl]-3-methyl-thiophen-2-carbonyl}-amino)-3-[(thiophene-2-carbonyl)-amino]-propionic acid], the figures for the IC50 at sLFA-1/ICAM-1 and at Mac-1/ICAM-1 were 516 nM and > 3000 nM, respectively.
For `Cc1cc(C(=O)NCc2cccc3c2CC(=O)N3)sc1C(=O)N[C@@H](CNC(=O)c1cccs1)C(=O)O` [Example 35, (S)-2-({3-methyl-5-[(2-oxo-2,3-dihydro-11′-indol-4-ylmethyl)carbamoyl]-thiophen-2-carbonyl}-amino)-3-[(thiophene-2-carbonyl)-amino]-propionic acid], the IC50 at sLFA-1/ICAM-1 is 671 nM; on Mac-1/ICAM-1, > 3000 nM.
Taken in the same sequence, the figures for `Cc1cc(C(=O)NCc2cccc3[nH]ncc23)sc1C(=O)N[C@@H](CNC(=O)c1cccs1)C(=O)O` [Example 36, (S)-2-({5-[(1H-indazol-4-ylmethyl)-carbamoyl]-3-methyl-thiophen-2-carbonyl}-amino)-3-[(thiophene-2-carbonyl)-amino]-propionic acid] were 24 nM and 48 nM.
Taken in the same sequence, the figures for `Cc1cc(C(=O)NCc2cccc(O)c2)sc1C(=O)N[C@@H](CNC(=O)c1cc(O)cc(O)c1)C(=O)O` [Example 38, (S)-3-(3,5-dihydroxy-benzoylamino)-2-{[5-(3-hydroxy-benzylcarbamoyl)-3-methyl-thiophen-2-carbonyl]-amino}-propionic acid] were 2 nM and 7 nM.
The corresponding values for `Cc1cc(C(=O)NCc2cccc(O)c2)sc1C(=O)N[C@@H](CNC(=O)c1cc(=O)[nH]c(=O)[nH]1)C(=O)O` [Example 39] are 55 nM and > 3000 nM.
As to `Cc1cc(C(=O)NCc2cccc(O)c2)sc1C(=O)N[C@@H](CNC(=O)c1cccc(O)c1)C(=O)O` [Example 40], the IC50 was 2 nM on sLFA-1/ICAM-1 and 23 nM on Mac-1/ICAM-1.
The corresponding values for `Cc1cc(C(=O)NCc2cccc(O)c2)sc1C(=O)N[C@@H](CNC(=O)c1cnccn1)C(=O)O` [Example 41] are 21 nM and > 3000 nM.
On to `Cc1cc(C(=O)NCc2cccc(O)c2)sc1C(=O)N[C@@H](CNC(=O)c1ccc2[nH]cnc2c1)C(=O)O` [Example 42], for which the results for the IC50 on sLFA-1/ICAM-1 and at Mac-1/ICAM-1 were 35 nM and > 3000 nM, respectively.
